Where two headings read alike, the source gives them in different places.
Experiments:
coronin 1 promoter [1] = test: Fluorescence-based screening assay: coronin 1 promoter driven GFP in RBL cells (microplate reader / microscopy); type: cell-based; conditions: RBL; 5 μg/ml, 48 h, microplate reader, DMSO = 100; read-out: GFP values (%)
Method: The murine coronin 1 promoter sequences of SEQ ID NO: 1-6 were each cloned into a plasmid lacking a promoter (promoterless) but containing a destabilized Green Fluorescence Protein (GFP) cassette. Rat Basophil Leukemia (RBL) cells were transfected with the plasmids, stable GFP expressing cells were enriched, incubated with various compounds and assessed for coronin 1 promoter inhibition by assessing green fluorescence values (FIG. 2).
The plasmids were independently transfected into immune cells (Rat basophil Leukemia, RBL cells) to generate green and red fluorescent RBL cells that were subsequently enriched by means of flow cytometry. These cells were then mixed in equal ratio (1:1) and incubated in a 96 well plate at 100,000 cells/well in a volume of 200 μl of phenol red free RPMI supplemented with 8% fetal calf serum, L-glutamate and antibiotics (penicillin, […]) from available chemical libraries. At defined time points (8 h, 24 h and 48 h), the GFP and RFP fluorescence was measured using a 96 well microplate reader (Synergy, BioTek Instruments). […] Selected compounds show different levels of modulation of coronin 1 promoter driven GFP and CMV promoter driven RFP fluorescence. GFP and RFP fluorescence were analyzed with a microplate reader upon incubation with the top coronin 1 promoter inhibiting compounds. Shown are percentage of GFP reduction (left column) and percentage of RFP reduction (right column) for the compounds at 5 μg/ml concentration at 48 h. Cycloheximide (CHX) serves as positive control whereas media and DMSO serve as negative controls. […] Cells were imaged using a fluorescence microscope to validate fluorescence inhibition (FIG. 3A) and as well assess morphology and viability (in addition to GFP down regulation confirmation). In addition, quantitative Polymerase Chain Reaction (qPCR) for coronin 1 mRNA transcripts reveal reduction with compound 11 (FIG. 3B). The primers used for the qPCR on RBL cells are listed below as follows;

[2] = system: early cytomegalovirus promoter; test: Screening assay control: CMV promoter driven RFP in RBL cells (microplate reader); type: cell-based; conditions: 5 μg/ml, 48 h, microplate reader, DMSO = 100, read-out: RFP values (%)
Method: As an unrelated promoter, the early cytomegaloviral promoter element was cloned into a promoterless Red Fluorescence Protein (RFP) expression plasmid. Rat Basophil Leukemia (RBL) cells were transfected with the plasmid, stable RFP expressing cells enriched, incubated with various compounds and were assessed for red fluorescence values. Analyzing the inhibition of an unrelated promoter (in this case, early cytomegalovirus promoter) that drove Red Fluorescence Protein (RFP) expression assessed non-specificity of the compound under analysis.
The plasmids were independently transfected into immune cells (Rat basophil Leukemia, RBL cells) to generate green and red fluorescent RBL cells that were subsequently enriched by means of flow cytometry. These cells were then mixed in equal ratio (1:1) and incubated in a 96 well plate at 100,000 cells/well in a volume of 200 μl of phenol red free RPMI supplemented with 8% fetal calf serum, L-glutamate and antibiotics (penicillin, streptomycin) and various compounds (3 and 5 μg/ml concentrations) from available chemical libraries. At defined time points (8 h, 24 h and 48 h), the GFP and RFP fluorescence was measured using a 96 well microplate reader (Synergy, BioTek Instruments). […] Selected compounds show different levels of modulation of coronin 1 promoter driven GFP and CMV promoter driven RFP fluorescence. GFP and RFP fluorescence were analyzed with a microplate reader upon incubation with the top coronin 1 promoter inhibiting compounds. Shown are percentage of GFP reduction (left column) and percentage of RFP reduction (right column) for the compounds at 5 μg/ml concentration at 48 h. Cycloheximide (CHX) serves as positive control whereas media and DMSO serve as negative controls. […] Cells were imaged using a fluorescence microscope to validate fluorescence inhibition (FIG. 3A) and as well assess morphology and viability (in addition to GFP down regulation confirmation). In addition, quantitative Polymerase Chain Reaction (qPCR) for coronin 1 mRNA transcripts reveal reduction with compound 11 (FIG. 3B). The primers used for the qPCR on RBL cells are listed below as follows;

RBL cells = test: Cell viability by live-dead staining (cytotoxicity), flow cytometry; type: cell-based, Rat; conditions: cell viability via live/dead staining, 48-65 h, read-out: EC50 Toxicity
Method: (§1) RBL cells expressing GFP under coronin 1 promoter and optionally with RBL cells expressing RFP under CMV promoter were mixed in equal numbers and incubated with the compounds at indicated concentrations for 48-65 h and analyzed by flow cytometry for alteration in coronin 1 promoter (GFP fluorescence), CMV promoter (RFP fluorescence) values. In addition, the cells were labelled with live-dead marker for assessing cell viability status by flow cytometry. Cycloheximide (CHX) serves as positive control and DMSO serves as negative controls. Effective Concentration (EC50) values for coronin 1 promoter inhibition via GFP fluorescence analysis, non-specific promoter inhibition via CMV promoter driven-RFP fluorescence analysis and cell viability via live/dead staining as a measure for toxicity in flow cytometry for compounds (10-22 and 50a-65a) are shown in Table 6 and Table 7. Based on the EC50 analysis of the inhibition of coronin 1 promoter driven GFP fluorescence the (4S,7R)-configurated eutomers were identified (Structures FIG. 9A-C). This is exemplified for compounds containing two stereocenters by eutomers 11c and 13a. […] Subsequent EC50 evaluations (Table 7) were performed with compound 13a as standard for relative potency normalized to a value of 1.00 (relative potency calculated as [EC50 GFP inhibition 13a]/[EC50 GFP inhibition compound of interest]).

coronin 1 promoter [3] = test: EC50 analysis for coronin 1 promoter driven GFP inhibition by flow cytometry in RBL cells; type: cell-based; conditions: RBL cells, 48-65 h, flow cytometry
Method: RBL cells that had been incubated with the indicated calcium channel blockers (amlodipine (3.125 μM) and verapamil (8 μM) concentrations for 48 h were analyzed by flow cytometry for any alteration in coronin 1 promoter driven GFP fluorescence. The results reveal no effect of calcium channel blockers on coronin 1 promoter activity (FIG. 4).
as §1

Row | Compound | EC50 (coronin 1 promoter [3]; RBL) [nM] | EC50 (RBL cells; Rattus norvegicus, RBL) [µM] | also measured
1 | COC(=O)C1=C(C)NC2=C(C(=O)CC(c3ccccc3OC)C2)C1c1ccc(F)cc1 (stereo not drawn) [Comp. 2, methyl-4-(4-fluorophenyl)-7-(2-methoxyphenyl)-2-methyl-5-oxo-1,4,5,6,7,8-hexahydro-3-quinolinecarboxylate] |  |  | activity at 5 µg/mL (coronin 1 promoter [1]): 52%; activity at 5 µg/mL [2]: 81%
2 | CC1=C(C(=O)OCC2CCCO2)C(c2cccc([N+](=O)[O-])c2)C2=C(CC(c3cccs3)CC2=O)N1 (stereo not drawn) [Comp. 6, tetrahydro-2-furanylmethyl-2-methyl-4-(3-nitrophenyl)-5-oxo-7-(2-thienyl)-1,4,5,6,7,8-hexahydro-3-quinolinecarboxylate] |  |  | activity at 5 µg/mL (coronin 1 promoter [1]): 68%; activity at 5 µg/mL [2]: 75%
3 | CC1=C(C(=O)OCC2CCCO2)C(c2ccsc2)C2=C(C[C@@H](c3cccs3)CC2=O)N1 (mixture of isomers) [Comp. 7, tetrahydro-2-furanylmethyl-2-methyl-5-oxo-7-(2-thienyl)-4-(3-thienyl)-1,4,5,6,7,8-hexahydro-3-quinolinecarboxylate] |  |  | activity at 5 µg/mL (coronin 1 promoter [1]): 77%; activity at 5 µg/mL [2]: 95%
4 | COC(=O)C1=C(C)NC2=C(C(=O)CC(c3ccccc3OC)C2)C1c1cccs1 (stereo not drawn) [Comp. 9, methyl-7-(2-methoxyphenyl)-2-methyl-5-oxo-4-(2-thienyl)-1,4,5,6,7,8-hexahydro-3-quinolinecarboxylate] |  |  | activity at 5 µg/mL (coronin 1 promoter [1]): 58%; activity at 5 µg/mL [2]: 97%
5 | COc1ccccc1C1CC(=O)C2=C(C1)NC(C)=C(C(=O)OCC1CC(C)(C)OC(C)(C)C1)C2c1cccc(O)c1 (stereo not drawn) [compound 19, (2,2,6,6-tetramethyltetrahydro-2H-pyran-4-yl)methyl 4-(3-hydroxyphenyl)-7-(2-methoxyphenyl)-2-methyl-5-oxo-1,4,5,6,7,8-hexahydroquinoline-3-carboxylate] | 160 | > 2.5 | 
6 | COC(=O)C1=C(C)NC2=C(C(=O)CC(c3ccccc3OC)C2)C1c1ccccc1 (stereo not drawn) [compound 14, methyl 7-(2-methoxyphenyl)-2-methyl-5-oxo-4-phenyl-1,4,5,6,7,8-hexahydroquinoline-3-carboxylate] | 250 | > 6 | 
7 | COC(=O)C1=C(C)NC2=C(C(=O)C[C@H](c3ccccc3OC)C2)[C@@H]1c1cccc(O)c1 (stereo in doubt) [11a, methyl-4-(3-hydroxyphenyl)-7-(2-methoxyphenyl)-2-methyl-5-oxo-1,4,5,6,7,8-hexahydro-3-quinolinecarboxylate] |  | > 9 | EC50 (coronin 1 promoter [3]): 500 nM
8 | COC(=O)C1=C(C)NC2=C(C(=O)C[C@H](c3ccccc3OC)C2)[C@@H]1c1cccc(O)c1 [11c, methyl (4S, 7R)-4-(3-hydroxyphenyl)-7-(2-methoxyphenyl)-2-methyl-5-oxo-1,4,5,6,7,8-hexahydro-3-quinolinecarboxylate] |  |  | EC50 (RBL cells): > 9 µM; EC50 (coronin 1 promoter [3]): 175 nM
9 | COC(=O)C1=C(C)NC2=C(C(=O)CC(c3ccccc3OC)C2)C1c1cccc(OC)c1 (stereo not drawn) [compound 15, methyl 7-(2-methoxyphenyl)-4-(3-methoxyphenyl)-2-methyl-5-oxo-1,4,5,6,7,8-hexahydroquinoline-3-carboxylate] | 1200 | > 15 | 
10 | COC(=O)C1=C(C)NC2=C(C(=O)CC(c3ccccc3OC)C2)C1c1ccccc1O (stereo not drawn) [compound 16, methyl 4-(2-hydroxyphenyl)-7-(2-methoxyphenyl)-2-methyl-5-oxo-1,4,5,6,7,8-hexahydroquinoline-3-carboxylate] | 900 | > 7.5 | 
11 | COCCCCOC(=O)C1=C(C)NC2=C(C(=O)CC(c3ccccc3OC)C2)C1c1cccc(O)c1 (stereo not drawn) [compound 17, 4-methoxybutyl 4-(3-hydroxyphenyl)-7-(2-methoxyphenyl)-2-methyl-5-oxo-1,4,5,6,7,8-hexahydroquinoline-3-carboxylate] | 100 | > 5 | 
12 | COc1ccccc1C1CC(=O)C2=C(C1)NC(C)=C(C(=O)OC(C)(C)C)C2c1cccc(O)c1 (stereo not drawn) [compound 21, tert-butyl 4-(3-hydroxyphenyl)-7-(2-methoxyphenyl)-2-methyl-5-oxo-1,4,5,6,7,8-hexahydroquinoline-3-carboxylate] | 280 | > 2.5 | 

Second part, led by results:

Row | EC50 (coronin 1 promoter [3]; RBL) [nM] | Compound | EC50 (RBL cells; Rattus norvegicus, RBL) [µM] | also measured
13 | 2500 | COc1ccccc1[C@@H]1CC(=O)C2=C(C1)NC(C)=C(C(=O)OC[C@@H]1CCCO1)[C@@H]2c1cccc(O)c1 [12f, tetrahydro-2-furanylmethyl-4-(3-hydroxyphenyl)-7-(2-methoxyphenyl)-2-methyl-5-oxo-1,4,5,6,7,8-hexahydro-3-quinolinecarboxylate] | > 2 | 
14 | 200 | COc1ccccc1[C@H]1CC(=O)C2=C(C1)NC(C)=C(C(=O)OCC1CCCO1)[C@H]2c1cccc(O)c1 (stereo in doubt) [12a, tetrahydro-2-furanylmethyl-4-(3-hydroxyphenyl)-7-(2-methoxyphenyl)-2-methyl-5-oxo-1,4,5,6,7,8-hexahydro-3-quinolinecarboxylate] | > 30 | 
15 | > 30000 | COc1ccccc1[C@H]1CC(=O)C2=C(C1)NC(C)=C(C(=O)OCC1CCCO1)[C@@H]2c1cccc(O)c1 (stereo in doubt) [12b, tetrahydro-2-furanylmethyl-4-(3-hydroxyphenyl)-7-(2-methoxyphenyl)-2-methyl-5-oxo-1,4,5,6,7,8-hexahydro-3-quinolinecarboxylate] | > 30 | 
16 | 2000 | COC(=O)C1=C(C)NC2=C(C(=O)C[C@@H](c3ccccc3OC)C2)[C@H]1c1cccc(O)c1 [11d, methyl-4-(3-hydroxyphenyl)-7-(2-methoxyphenyl)-2-methyl-5-oxo-1,4,5,6,7,8-hexahydro-3-quinolinecarboxylate] | > 18 | 
17 | 500 | COc1ccccc1C1CC(=O)C2=C(C1)NC(C)=C(C(=O)OC1COC1)C2c1cccc(O)c1 (stereo not drawn) [compound 20, oxetan-3-yl 4-(3-hydroxyphenyl)-7-(2-methoxyphenyl)-2-methyl-5-oxo-1,4,5,6,7,8-hexahydroquinoline-3-carboxylate] | > 2.5 | 
18 | 200 | COc1ccccc1[C@H]1CC(=O)C2=C(C1)NC(C)=C(C(=O)OC[C@@H]1CCCO1)[C@H]2c1cccc(O)c1 (racemic) [12c, tetrahydro-2-furanylmethyl-4-(3-hydroxyphenyl)-7-(2-methoxyphenyl)-2-methyl-5-oxo-1,4,5,6,7,8-hexahydro-3-quinolinecarboxylate] | > 4 | 
